Test [1] has as its target T1, SIK3 kinase (aa59-365, Thermo Fisher) (Homo sapiens, UniProt Q9Y2K2).
T1 construct: SIK3 kinase (aa59-365, Thermo Fisher); purchased Thermo Fisher
In words: Biochemical activities determination for SIK3 protein (TR-FRET). To be noted: 125 uM ATP, 0.5 μM STK1 substrate. The method in brief: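 SIK3 (aa59-365) was preincubated with compound (0-10 μM) for 60 min at room temperature in Tris buffer pH 7.5. The reaction was then started with 125 uM ATP and 0.5 μM STK1 substrate and run 180 min at room temperature. Phospho-substrate was detected by HTRF (665/620 nm ratio), and IC50 came from a four-parameter logistic fit.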

Test [2] deals with T2, SIK2 kinase (full length, Thermo Fisher) (Homo sapiens, UniProt Q9H0K1).
T2 construct: SIK2 kinase (full length, Thermo Fisher); purchased Thermo Fisher
T2 sequence (Q9H0K1 whole entry): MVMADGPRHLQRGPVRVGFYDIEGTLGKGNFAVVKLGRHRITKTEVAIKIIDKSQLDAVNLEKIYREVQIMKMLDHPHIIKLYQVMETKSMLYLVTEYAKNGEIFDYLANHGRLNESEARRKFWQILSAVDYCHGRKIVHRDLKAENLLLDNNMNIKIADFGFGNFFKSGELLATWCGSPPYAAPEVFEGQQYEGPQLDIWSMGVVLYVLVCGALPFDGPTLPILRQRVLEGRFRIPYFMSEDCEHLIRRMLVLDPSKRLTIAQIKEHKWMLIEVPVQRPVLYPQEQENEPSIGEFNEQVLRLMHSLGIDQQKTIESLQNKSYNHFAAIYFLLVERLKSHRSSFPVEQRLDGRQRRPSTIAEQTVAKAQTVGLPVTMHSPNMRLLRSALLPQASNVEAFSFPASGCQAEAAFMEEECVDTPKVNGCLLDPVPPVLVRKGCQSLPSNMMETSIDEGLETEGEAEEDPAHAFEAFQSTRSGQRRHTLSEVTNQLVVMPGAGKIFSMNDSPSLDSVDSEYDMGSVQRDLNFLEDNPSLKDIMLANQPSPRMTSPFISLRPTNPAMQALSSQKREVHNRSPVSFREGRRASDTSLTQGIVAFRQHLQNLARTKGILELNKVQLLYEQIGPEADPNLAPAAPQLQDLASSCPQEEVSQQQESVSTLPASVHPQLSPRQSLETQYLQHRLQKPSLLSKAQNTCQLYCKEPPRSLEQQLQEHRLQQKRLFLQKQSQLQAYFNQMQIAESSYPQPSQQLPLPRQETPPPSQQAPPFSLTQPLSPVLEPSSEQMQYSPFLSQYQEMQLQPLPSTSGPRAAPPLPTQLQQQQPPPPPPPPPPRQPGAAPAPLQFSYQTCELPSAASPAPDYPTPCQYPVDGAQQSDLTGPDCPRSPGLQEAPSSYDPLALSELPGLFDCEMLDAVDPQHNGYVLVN
In words: Biochemical activities determination for SIK2 protein (TR-FRET). The conditions noted are these: 80 uM ATP, 0.5 μM substrate. The method in brief:
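Full-length SIK2 preincubated 60 min with 0–10 μM compound, then reacted 180 min at room temperature with 80 uM ATP and 0.5 μM biotinylated substrate (pH 7.5 Tris/MgCl2 buffer). Phosphorylation detected by TR-FRET (665/620 nm ratio, cryptate antibody/streptavidin-XL665) after overnight incubation; IC50 from four-parameter logistic fit.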

The target of test [3] is T3, SIK1 kinase (aa1-303, Thermo Fisher) (Homo sapiens, UniProt P57059).
T3 construct: SIK1 kinase (aa1-303, Thermo Fisher); purchased Thermo Fisher
T3 sequence (P57059 1-303): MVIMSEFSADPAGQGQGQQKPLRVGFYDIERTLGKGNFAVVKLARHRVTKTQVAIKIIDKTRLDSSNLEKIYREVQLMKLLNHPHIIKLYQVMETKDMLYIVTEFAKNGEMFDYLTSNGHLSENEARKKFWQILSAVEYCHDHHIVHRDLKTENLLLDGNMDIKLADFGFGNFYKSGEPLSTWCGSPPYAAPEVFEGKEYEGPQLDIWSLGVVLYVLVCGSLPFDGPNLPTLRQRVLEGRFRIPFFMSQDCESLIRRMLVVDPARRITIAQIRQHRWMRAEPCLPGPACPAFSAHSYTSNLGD
In words: Biochemical activities determination for SIK1 protein (TR-FRET). To be noted: 110 uM ATP, 0.5 μM STK1 substrate. The method, boiled down:
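TR-FRET kinase assay with SIK1 (aa1-303), 110 uM ATP, 0.5 μM STK1 substrate and 0-10 μM compound in Tris pH 7.5 with MgCl2, EGTA, DTT, Triton X-100. Enzyme preincubated with compound 60 min, reaction 180 min at room temperature; 665/620 nm ratio after overnight detection; IC50 from four-parameter logistic fit.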

Some results are limits rather than exact numbers.

T1 sequence (Q9Y2K2 59-365): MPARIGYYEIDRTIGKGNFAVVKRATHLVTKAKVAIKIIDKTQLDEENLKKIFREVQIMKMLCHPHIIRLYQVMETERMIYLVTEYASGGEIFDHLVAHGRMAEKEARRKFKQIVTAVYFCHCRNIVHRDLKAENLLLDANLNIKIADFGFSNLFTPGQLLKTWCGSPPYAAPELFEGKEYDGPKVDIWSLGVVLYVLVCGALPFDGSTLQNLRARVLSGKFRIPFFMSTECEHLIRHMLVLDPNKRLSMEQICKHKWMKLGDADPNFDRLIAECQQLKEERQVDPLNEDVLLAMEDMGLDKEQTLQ

As to `O=C(NC1CC1)c1c(OC(F)F)cc(-c2coc3cc(OCCN4CCCC4)ccc23)cc1OC1CC1` [Compound 121, 2-cyclopropoxy-N-cyclopropyl-6-(difluoromethoxy)-4-(6-(2-(pyrrolidin-1-yl)ethoxy)benzofuran-3-yl)benzamide], the IC50 is 2120 nM in test [1], 438 nM in test [2] and over 10000 nM in test [3].
As for `CNc1cc(-c2coc3cc(OCCN4CCCC4)ccc23)cc(OC(F)F)c1C(=O)NC1CC1` [Compound 122, N-cyclopropyl-2-(difluoromethoxy)-6-(methylamino)-4-(6-(2-(pyrrolidin-1-yl)ethoxy)benzofuran-3-yl)benzamide], the IC50 was 158 nM in test [1], 45 nM in test [2] and 3960 nM in test [3].
Regarding `O=C(NC1CC1)c1c(OC(F)F)cc(-c2coc3cc(OCCN4CCCC4)ccc23)cc1OC(F)F` [Compound 123, N-cyclopropyl-2,6-bis(difluoromethoxy)-4-(6-(2-(pyrrolidin-1-yl)ethoxy)benzofuran-3-yl)benzamide], the figures for the IC50 in test [1], in test [2] and in test [3] were 506 nM, 114 nM and 8000 nM, respectively.
For `COc1cc(-c2coc3cc(OCCN4CCCC4)ccc23)cc(OC(F)F)c1C(=O)N[C@H]1CCCC[C@H]1O` [Compound 125, 2-(difluoromethoxy)-N-((1S,2R)-2-hydroxycyclohexyl)-6-methoxy-4-(6-(2-(pyrrolidin-1-yl)ethoxy)benzofuran-3-yl)benzamide] the same measures were 2490 nM, 385 nM and over 10000 nM.
As for `COc1cc(-c2coc3cc(OCCN4CCCC4)ccc23)cc(OC(F)F)c1C(=O)N[C@H]1CCC[C@H]1O` [Compound 126, 2-(difluoromethoxy)-N-((1S,2R)-2-hydroxycyclopentyl)-6-methoxy-4-(6-(2-(pyrrolidin-1-yl)ethoxy)benzofuran-3-yl)benzamide], the IC50 in test [1] was 878 nM; in test [2] it was 224 nM; in test [3] it was over 10000 nM.
For `COc1cc(-c2coc3cc(OCCN4CCCC4)ccc23)cc(OC(F)F)c1C(=O)NC1CCCCC1` [Compound 127, N-cyclohexyl-2-(difluoromethoxy)-6-methoxy-4-(6-(2-(pyrrolidin-1-yl)ethoxy)benzofuran-3-yl)benzamide] the same measures were 2900 nM, 619 nM and over 10000 nM.
`COc1cc(-c2coc3cc(OCCN4CCCC4)ccc23)cc(OC(F)F)c1C(=O)NC1CCCC1` [Compound 128, N-cyclopentyl-2-(difluoromethoxy)-6-methoxy-4-(6-(2-(pyrrolidin-1-yl)ethoxy)benzofuran-3-yl)benzamide]: the IC50 was 812 nM in test [1], 156 nM in test [2] and over 10000 nM in test [3].
In the same order, the values of `COc1cc(-c2coc3cc(OCCN4CCCC4)ccc23)cc(OC(F)F)c1C(=O)NC1CCC1` [Compound 129, N-cyclobutyl-2-(difluoromethoxy)-6-methoxy-4-(6-(2-(pyrrolidin-1-yl)ethoxy)benzofuran-3-yl)benzamide] are 683 nM, 146 nM and over 10000 nM.
`COc1cc(-c2coc3cc(-c4cnn(C)c4)ccc23)cc(OC(F)F)c1C(=O)NC1CC1` [Compound 132, N-cyclopropyl-2-(difluoromethoxy)-6-methoxy-4-(6-(1-methyl-1H-pyrazol-4-yl)benzofuran-3-yl)benzamide]: the half-inhibitory concentration (IC50) came out at 15 nM in test [1], 13 nM in test [2] and 124 nM in test [3].
For `COc1cc(-c2coc3cc(-c4ccc(C)nn4)ccc23)cc(OC(F)F)c1C(=O)NC1CC1` [Compound 133, N-cyclopropyl-2-(difluoromethoxy)-6-methoxy-4-(6-(6-methylpyridazin-3-yl)benzofuran-3-yl)benzamide], the IC50 in test [1] is 199 nM; in test [2], 199 nM; in test [3] it was over 10000 nM.
Turning to `NC1CCN(c2cccc3ccc(-c4coc5cc(OCCN6CCOCC6)ccc45)nc23)CC1` [Compound 134, 1-(2-(6-(2-morpholinoethoxy)benzofuran-3-yl)quinolin-8-yl) piperidin-4-amine], the IC50 came out at 156 nM in test [1], 66 nM in test [2] and 958 nM in test [3].
For the molecule `COc1cc(-c2coc3cc(-c4cnn(C)c4)ccc23)cc2c1C(=O)N(CC(F)(F)F)CC2` [Example 1, 8-methoxy-6-(6-(1-methyl-1H-pyrazol-4-yl)benzofuran-3-yl)-2-(2,2,2-trifluoroethyl)-3,4-dihydroisoquinolin-1 (2H)-one], the IC50 in test [1] turned out to be 19 nM; in test [2] it was 10 nM; in test [3], 303 nM.
Regarding `CCn1cc(-c2ccc3c(-c4cc5c(c(OC)c4)C(=O)N(CC(F)(F)F)CC5)coc3c2)cn1` [Example 2, 6-(6-(1-ethyl-1H-pyrazol-4-yl)benzofuran-3-yl)-8-methoxy-2-(2,2,2-trifluoroethyl)-3,4-dihydroisoquinolin-1 (2H)-one], the results for the IC50 in test [1], in test [2] and in test [3] were 28 nM, 15 nM and 375 nM, respectively.
Regarding `COc1cc(-c2coc3cc(-c4cnn(C(C)C)c4)ccc23)cc2c1C(=O)N(CC(F)(F)F)CC2` [Example 3, 6-(6-(1-isopropyl-1H-pyrazol-4-yl)benzofuran-3-yl)-8-methoxy-2-(2,2,2-trifluoroethyl)-3,4-dihydroisoquinolin-1 (2H)-one], the IC50 in test [1] turned out to be 42 nM; in test [2], 28 nM; in test [3], 476 nM.
As for `COc1cc(-c2coc3cc(-c4cnn(C5CC5)c4)ccc23)cc2c1C(=O)N(CC(F)(F)F)CC2` [Example 4, 6-(6-(1-cyclopropyl-1H-pyrazol-4-yl)benzofuran-3-yl)-8-methoxy-2-(2,2,2-trifluoroethyl)-3,4-dihydroisoquinolin-1 (2H)-one], the IC50 in test [1] was 53 nM; in test [2], 37 nM; in test [3], 728 nM.
With `COc1cc(-c2coc3cc(-c4cc(C)n[nH]4)ccc23)cc2c1C(=O)N(CC(F)(F)F)CC2` [Example 5, 8-methoxy-6-(6-(3-methyl-1H-pyrazol-5-yl)benzofuran-3-yl)-2-(2,2,2-trifluoroethyl)-3,4-dihydroisoquinolin-1 (2H)-one], the IC50 in test [1] came out at 41 nM; in test [2], 33 nM; in test [3] it was 538 nM.
On to `CCOc1cncc(-c2ccc3c(-c4cc5c(c(OC)c4)C(=O)N(CC(F)(F)F)CC5)coc3c2)c1` [Example 6, 6-(6-(5-ethoxypyridin-3-yl)benzofuran-3-yl)-8-methoxy-2-(2,2,2-trifluoroethyl)-3,4-dihydroisoquinolin-1 (2H)-one], for which the figures for the IC50 in test [1], in test [2] and in test [3] were 1430 nM, 7460 nM and over 10000 nM, respectively.
On to `COc1cc(-c2coc3cc(-c4cn(C)cn4)ccc23)cc2c1C(=O)N(CC(F)(F)F)CC2` [Example 7, 8-methoxy-6-(6-(1-methyl-1H-imidazol-4-yl)benzofuran-3-yl)-2-(2,2,2-trifluoroethyl)-3,4-dihydroisoquinolin-1 (2H)-one], for which the IC50 came to 60 nM in test [1], 14 nM in test [2] and 671 nM in test [3].
As to `COc1cc(-c2coc3cc(-c4ccc(C)nn4)ccc23)cc2c1C(=O)N(CC(F)(F)F)CC2` [Example 8, 8-methoxy-6-(6-(6-methylpyridazin-3-yl)benzofuran-3-yl)-2-(2,2,2-trifluoroethyl)-3,4-dihydroisoquinolin-1 (2H)-one], the IC50 in test [1] was 304 nM; in test [2], 197 nM; in test [3], over 10000 nM.
For the molecule `COc1ccc(-c2ccc3c(-c4cc5c(c(OC)c4)C(=O)N(CC(F)(F)F)CC5)coc3c2)cn1` [Example 9, 8-methoxy-6-(6-(6-methoxypyridin-3-yl)benzofuran-3-yl)-2-(2,2,2-trifluoroethyl)-3,4-dihydroisoquinolin-1 (2H)-one], the IC50 in test [1] is 334 nM; in test [2], 296 nM; in test [3], over 10000 nM.
On to `COc1cc(-c2coc3cc(-c4cnnc(C)c4)ccc23)cc2c1C(=O)N(CC(F)(F)F)CC2` [Example 10, 8-methoxy-6-(6-(6-methylpyridazin-4-yl)benzofuran-3-yl)-2-(2,2,2-trifluoroethyl)-3,4-dihydroisoquinolin-1 (2H)-one], for which the figures for the IC50 in test [1], in test [2] and in test [3] were 187 nM, 418 nM and over 10000 nM, respectively.
In the same order, the values of `COc1cc(-c2coc3cc(-c4cnn(C)c4)cc(F)c23)cc2c1C(=O)N(CC(F)(F)F)CC2` [Example 11, 6-(4-fluoro-6-(1-methyl-1H-pyrazol-4-yl)benzofuran-3-yl)-8-methoxy-2-(2,2,2-trifluoroethyl)-3,4-dihydroisoquinolin-1 (2H)-one] are 155 nM, 49 nM and 1550 nM.

Values taken from patent US20260085053A1, “BENZOFURAN DERIVATIVES AS SIK INHIBITORS AND THE USE THEREOF” (BEONE MEDICINES I GMBH, priority 2023, published 2026).
